Source: patent publication US9145375B2, “Quinazolinone compounds” (PRANA BIOTECHNOLOGY LIMITED, priority 2008, dated 2015)
Values joined by “and” are separate entries in the source; they are usually repeats but may differ in a detail not shown here. Equal entries are not always repeated.

Experiments:
[1] = tested on: M17 human neuroblastoma cells; test: Metal Uptake Assay (metal transport); type: cell-based; conditions: 10 μM Cu + 10 μM compound, 5 hours
Procedure: Assay 3. Metal Uptake Assay
M17 human neuroblastoma cells are plated out on 6 well plates and left overnight. Enough cells are added to give approximately 70% confluent the following day of the experiment. Test compounds are added to media and mixed with equi-molar amounts of CuCl2 solution. A=10 μM Cu+10 μM MPAC; B=10 μM Cu+10 μM MPAC.
Cells are incubated in 1 ml of media/MPAC/Cu mix for 5 hours at 37° C. At the end of the incubation the media is removed with a vacuum aspirator and 1 ml of PBS added to dislodge the cells. Cells are then put into Eppendorf tubes and pelleted. The PBS is removed and the remaining cell pellets are frozen at −20 C.
The cell pellets are prepared as follows:
Received cell pellets of similar levels in 1.5 ml microfuge tubes. Added 50 μl of concentrated Nitric Acid (Aristar, BDH) to each cell pellet and allowed them to digest over night. Heated the samples for 20 min at 90° C. to complete the digestion. The volume of each sample was reduced to ˜45 ul after digestion. Added 1 ml of the 1% Nitric Acid diluent to each sample. (referred to as the “preparation solution” samples).
Measurements were made using a Varian UltraMass ICPMS instrument under operating conditions suitable for routine multi-element analysis.
The instrument was calibrated using Blank, 10, 50 and 100 ppb of a certified multi-element ICPMS standard solution (ICP-MS—CAI2-1, Accustandard) for Fe, Cu and Zn in 1% nitric acid. Used an certified internal standard solution containing 100 ppb Yttrium (Y 89) as an internal control (ICP-MS—IS-MIX1-1, Accustandard).

Neuronal cortical cells = test: Cytotox (% viable); Primary Neuronal Cells Neurotoxicity Assay; type: cell-based, mouse; conditions: cell type not given, repeat values given
Procedure: Assay 2 (a). Primary Neuronal Cells Neurotoxicity Assays
Cortical cultures were prepared as previously described (White et al., 1998). Embryonic day 14 BL6Jx129sv mouse cortices were removed, dissected free of meninges and dissociated in 0.025% (wt/vol) trypsin. Dissociated cells were plated in 48 well culture plates at a density of 2×10^6 cells/mL in MEM with 25% (vol/vol) FCS and 5% (vol/vol) HS and incubated at 37° C., 2 hrs. Media was then replaced with Neurobasal media (Invitrogen Life Technologies) and B27 supplements (Invitrogen Life Technologies). Cultures were maintained at 37° C. in 5% CO2. Prior to experimentation, the culture medium was replaced with Neurobasal media and B27 minus antioxidants (Invitrogen Life Technologies).
Neuronal cortical cells were cultured for five days as per Assay 2 in NB media and B27 supplement.
On day six the test compounds were added to the neuronal cell cultures in NB media and B27 supplement minus antioxidants.
Test compounds were dissolved in 100% DMSO to a concentration of 2.5 mM (10 mM if excess compound was weighed out per vial—then diluted to 2.5 mM). 2.5 mM stock solution was serially diluted 1 in 10 to give working solutions of 250 uM, 25 uM, 2.5 uM. Test compounds were not added directly to cells, instead they were added to a 48 well ‘Drug Plate’ as comprised below: • Preparation of “Drug Plate”:
Well 1: 576 ul NB+B27 (no antioxidant)*+24 ul 2.5 uM test compound
Well 2: 576 ul NB+B27 (no antioxidant)+24 μl 25 uM test compound
Well 3: 576 ul NB+B27 (no antioxidant)+24 ul 250 uM test compound
Well 4: 576 ul NB+B27 (no antioxidant)+24 ul 2.5 uM test compound
Well 5: 576 ul NB+B27 (no antioxidant)+24 ul 25 uM test compound
Well 6: 576 ul NB+B27 (no antioxidant)+24 ul 250 uM test compound
Well 7: 576 ul NB+B27 (no antioxidant)+24 ul test compound diluent**
Well 8: 600 ul NB+B27 (no antioxidant)
The Drug Plate was incubated at 37° C. for 15 mins. 200 ul of each well was added in triplicate to the corresponding cell plate. The cell plate was incubated at 37° C., for 4 days, (2 compounds are tested on each plate of cells).
*NB media and B27 (no antioxidants),
**PBT diluent 10% DMSO in NB+1327 (no antioxidants)
On completion of the assay, 1/10 volume MTS was added per well of plate (ie 25 ul/250 ul). The plates were incubated at 37° C. for 2 hrs, and then absorbance was read at 560 nm.

Fe-DA = test: H2O2 assay, Fe-DA (% cf. Fe 0.4 μM/DA 50 μM); type: biochemical; conditions: Fe 0.4 μM/DA 50 μM
Procedure: (§1) This fluoresence assay evaluates the ability of a test compound to inhibit the generation of hydrogen peroxide (H2O2) by iron in the presence of a reducing substrate such as ascorbic acid. In the assay, iron in the form of FeCl3 or copper is allowed to react with ascorbic acid by incubating for 1 hr at 37° C. in the presence of the fluorescing compound DCF and horseradish peroxidase. H2O2 generated by the system is assessed by measuring the specific fluorescence profile at the excitation and emission wavelengths of 485 and 530 nm respectively, in the presence of increasing concentrations of test compound. Test compounds are ranked according to their capacity to inhibit H2O2 generated by the system where lower values reflect greater ability to inhibit H2O2 production.

[2] = tested on: generation of hydrogen peroxide (H2O2) by iron; test: H2O2 Inhibition Assay; type: biochemical
Procedure: Assay 1. H2O2 Inhibition Assay.
as §1

IC50 [2] [nM]	SMILES	Metal transport [1]	Cytotox (% viable at 1 uM) (Neuronal cortical cells)	Cytotox (% viable at 10 uM) (Neuronal cortical cells)	Fe-DA % cf. Fe 0.4 μM/DA 50 μM (Fe-DA) [%]
880	CCCN(CCC)Cc1nc2c(O)c(Cl)cc(Cl)c2c(=O)n1CC1CC1 [Compound F4535]	Metal transport 25%	87.0% and 103.0%	63.6% and 59.8%	62
460	CCN(CC)Cc1nc2c(O)c(Cl)cc(Cl)c2c(=O)n1CC(C)C [Compound F4546]	Metal transport 21%	95.6% and 92.2% and 103.3%	63.7% and 86.5% and 100.3%	66
290	CCCn1c(CN(C)C)nc2c(O)c(Cl)cc(Cl)c2c1=O [Compound F4530]	Metal transport 24%	105.0% and 96.2%	57.6% and 41.4%	57
1890	O=c1c2c(Cl)cc(Cl)c(O)c2nc(CN2CCCC2)n1CC1CC1 [Compound F4499]	Metal transport 15%	99.1% and 76.5%	68.6% and 78.1%	55
300	CCCNCc1nc2c(O)c(Cl)cc(Cl)c2c(=O)n1CC [Compound F4549]	Metal transport 22%	98.5% and 99.7%	44.6% and 52.1%	40
380	CCCN(CCC)Cc1nc2c(O)c(Cl)cc(Cl)c2c(=O)n1CC(C)C [Compound F4548]	Metal transport 38%	96.5% and 96.0%	55.9% and 46.0%	40
500	CCCN(CCC)Cc1nc2c(O)c(Cl)cc(Cl)c2c(=O)n1CCC [Compound F4543]	Metal transport 62%	92.0% and 107.4%	52.6% and 61.5%	71
360	CCCNCc1nc2c(O)c(Cl)cc(Cl)c2c(=O)n1CCC [Compound F4542]	Metal transport 30%	105.8% and 102.9% and 94.3%		47
220	CCCNCc1nc2c(O)c(Cl)cc(Cl)c2c(=O)n1C [Compound F4477]	Metal transport 16%			65
750	CCCN(CCC)Cc1nc2c(O)c(Cl)cc(Cl)c2c(=O)n1CC [Compound F4550]	Metal transport 35%	88.7% and 94.7%	71.7% and 83.5%	128
1000	CN(Cc1nc2c(O)c(Cl)cc(Cl)c2c(=O)n1CC1CC1)C1CCCCC1 [Compound F4536]	Metal transport 24%	92.7% and 105.1% and 109.8%		81
740	CCCn1c(CN(CC)CC)nc2c(O)c(Cl)cc(Cl)c2c1=O [Compound F4541]	Metal transport 13%	97.3% and 96.4%	76.6% and 90.8%	107
500	CCN(C)Cc1nc2c(O)c(Cl)cc(Cl)c2c(=O)n1CC1CC1 [Compound F4581]				
> 10000	CCCn1c(CNCC)nc2c(O)c(Cl)cc(Cl)c2c1=O [Compound F4540]	Metal transport 14%	100.4% and 111.5%	83.4% and 96.5%	122
630	CCCCN(C)Cc1nc2c(O)c(Cl)cc(Cl)c2c(=O)n1C [Compound F4552]	Metal transport 94%	97.8% and 99.0%	58.7% and 62.8%	59
570	C#CCN(C)Cc1nc2c(O)c(Cl)cc(Cl)c2c(=O)n1CC [Compound F4392]	Metal transport 161%			72
450	CCCN(CCC)Cc1nc2c(O)c(Cl)cc(Cl)c2c(=O)n1C [Compound F4551]	Metal transport 30%	89.7% and 96.9%	50.7% and 62.5%	56
500	CCCNCc1nc2c(O)c(Cl)cc(Cl)c2c(=O)n1CC(C)C [Compound F4547]	Metal transport 54%	75.0% and 83.9%	25.2% and 26.0%	34
1140	CCCn1c(CN2CCCCC2)nc2c(O)c(Cl)cc(Cl)c2c1=O [Compound F4492]	Metal transport 18%			55
430	CCNCc1nc2c(O)c(Cl)cc(Cl)c2c(=O)n1CC(C)C [Compound F4545]	Metal transport 40%	86.4% and 85.0%	36.2% and 28.0%	148
470	CN(Cc1ccc(F)cc1)Cc1nc2c(O)c(Cl)cc(Cl)c2c(=O)n1CC1CC1 [Compound F4480]	Metal transport 138%	91.6% and 106.7%	30.3% and 33.3%	46
550	CCN(C)Cc1nc2c(O)c(Cl)cc(Cl)c2c(=O)n1C [Compound F4582]				
500	Cn1c(CN2CCCCC2)nc2c(O)c(Cl)cc(Cl)c2c1=O [Compound F4475]	Metal transport 8%			80
760	CCn1c(CN(C)Cc2ccc(F)cc2)nc2c(O)c(Cl)cc(Cl)c2c1=O [Compound F4487]	Metal transport 133%			53
830	CNCc1nc2c(O)c(Cl)cc(Cl)c2c(=O)n1CC(C)C [Compound F4544]	Metal transport 19%	84.0% and 86.9%	29.7% and 26.7%	164
